In ChEMBL document CHEMBL1141725, “DNA-templated click chemistry for creation of novel DNA binding molecules” (Bioorg Med Chem Lett, 2008):

Experiments:
[1] = Stabilization of double strand CGCG12 DNA assessed as change in melting temperature
[2] = Binding affinity to double strand CGCG12 DNA by fluorescence titration
[3] = Stabilization of double strand AATT12 DNA assessed as change in melting temperature
[4] = Binding affinity to double strand AATT12 DNA by fluorescence titration

| ΔTm [1] | Ks [2] | ΔTm [3] | Ks [4] | Structure (SMILES) |
| --- | --- | --- | --- | --- |
| 2 °C | 2 ×10⁵ /M | 3.1 °C | 1.6 ×10⁵ /M | [N-]=[N+]=NCCCNc1c2ccccc2nc2ccccc12 |
| 0 °C | – | 0 °C | 0.01 ×10⁵ /M | C#CCCCC(=O)N1CCC[C@H]1C(=O)N[C@@H](CCCNC(=N)N)C(=O)NCC(=O)N[C@@H](CCCNC(=N)N)CN1CCC[C@H]1C(N)=O |
| 3.9 °C | 3.6 ×10⁵ /M | 8.1 °C | 7.3 ×10⁵ /M | N=C(N)NCCC[C@@H](CN1CCC[C@H]1C(N)=O)NC(=O)CNC(=O)[C@H](CCCNC(=N)N)NC(=O)[C@@H]1CCCN1C(=O)CCCc1cn(CCCNc2c3ccccc3nc3ccccc23)nn1 |
